Assay [1] concerns the target T1, human glucocorticoid receptor (GR) complex (Homo sapiens, UniProt P04150).
T1 construct: made in house; host or cells: insect expression system (baculovirus lysate)
T1 sequence (P04150 1-777): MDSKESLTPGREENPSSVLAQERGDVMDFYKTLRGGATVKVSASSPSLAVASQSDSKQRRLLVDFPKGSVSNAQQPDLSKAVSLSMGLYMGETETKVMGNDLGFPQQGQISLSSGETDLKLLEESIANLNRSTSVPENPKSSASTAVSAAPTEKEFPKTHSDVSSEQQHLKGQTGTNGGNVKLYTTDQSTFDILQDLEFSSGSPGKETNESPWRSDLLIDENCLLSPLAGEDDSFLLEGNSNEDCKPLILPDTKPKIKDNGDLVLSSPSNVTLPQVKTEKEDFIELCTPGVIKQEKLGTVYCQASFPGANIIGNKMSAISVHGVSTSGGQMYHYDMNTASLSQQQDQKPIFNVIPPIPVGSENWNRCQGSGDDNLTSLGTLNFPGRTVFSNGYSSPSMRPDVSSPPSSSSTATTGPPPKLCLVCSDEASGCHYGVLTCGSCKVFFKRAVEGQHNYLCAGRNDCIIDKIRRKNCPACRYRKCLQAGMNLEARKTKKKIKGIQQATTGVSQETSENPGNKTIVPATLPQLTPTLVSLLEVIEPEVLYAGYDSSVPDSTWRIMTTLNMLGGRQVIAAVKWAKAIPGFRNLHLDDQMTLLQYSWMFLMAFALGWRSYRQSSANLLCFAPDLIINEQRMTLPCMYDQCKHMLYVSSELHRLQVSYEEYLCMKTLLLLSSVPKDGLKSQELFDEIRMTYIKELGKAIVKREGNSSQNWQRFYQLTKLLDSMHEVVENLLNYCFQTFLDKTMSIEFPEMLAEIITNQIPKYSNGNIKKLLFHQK
The assay can be described thus: Glucocorticoid Receptor Competitive Binding Assay (fluorescence polarization, TAMRA-labeled dexamethasone probe). The conditions noted are these: qualitative statement; competition with TAMRA-labeled dexamethasone. In a few lines: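 Competition with TAMRA-dexamethasone for a human GR complex expressed in insect cells, read by fluorescence polarization. Buffer was 10 mM TES, 50 mM KCl, 20 mM Na2MoO4, 1.5 mM EDTA, 0.04% CHAPS, 10% glycerol, 1 mM DTT, pH 7.4.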

Assay [2] concerns glucocorticoid receptor. Kind of assay: Glucocorticoid Receptor Cell Assays (agonist activity in one or more of the above assays). In kind it is cell-based. The settings on record: qualitative statement; assay not specified.

23 molecules from patent publication US7553966B2, “Glucocorticoid mimetics, methods of making them, pharmaceutical compositions, and uses thereof” (Boehringer Ingelheim Pharmaceuticals, Inc., priority 2002, dated 2009) can be followed below.

Each structure is given as a SMILES string.

On to `CC(C)(CC(O)(Cc1ccnc2ccccc12)C(F)(F)F)c1cc(Br)c2c(c1)CCO2` (stereo not shown) [4-(7-Bromo-2,3-dihydrobenzofuran-5-yl)-1,1,1-trifluoro-4-methyl-2-quinolin-4-ylmethylpentan-2-ol], for which the “activity in the GR binding assay” value in assay [1] is on record as “potent activity”. In addition, the “activity as agonists of the glucocorticoid receptor function in one or more of the above assays” value (“activity as agonists” below) in assay [2] is on record as “potent agonists”.
As to `CC(C)(CC(O)(Cc1cc2ccncc2[nH]1)C(F)(F)F)c1ccccc1` (stereo not shown) [1,1,1-Trifluoro-4-methyl-4-phenyl-2-(1H-pyrrolo[2,3-c]pyridin-2-ylmethyl)pentan-2-ol], in assay [1], the “activity in the GR binding assay” value is on record as “potent activity”. In assay [2], the “activity as agonists” value is “potent agonists”.
In the case of `COc1cccc(C(C)(C)CC(O)(Cc2cc3c(C)cc(C#N)cc3[nH]2)C(F)(F)F)c1` (stereo not shown) [2-[2-Hydroxy-4-(3-methoxyphenyl)-4-methyl-2-trifluoromethylpentyl]-4-methyl-1H-indole-6-carbonitrile], the “activity in the GR binding assay” value in assay [1] is on record as “potent activity”. Also, the “activity as agonists” value in assay [2] is “potent agonists”.
In the same order, the values of `Cc1cccc(C(C)(C)CC(O)(Cc2cc3ccccc3[nH]2)C(F)(F)F)c1` (stereo not shown) [1,1,1-Trifluoro-2-(1H-indol-2-ylmethyl)-4-methyl-4-m-tolylpentan-2-ol] are “potent activity” and “potent agonists”.
For `COc1cc(F)ccc1C(C)(C)CC(O)(Cc1ccnc2c1CCCC2)C(F)(F)F` (stereo not shown) [1,1,1-Trifluoro-4-(4-fluoro-2-methoxyphenyl)-4-methyl-2-(5,6,7,8-tetrahydroquinolin-4-ylmethyl)pentan-2-ol], in that order: “potent activity” and “potent agonists”.
For `COc1cc(F)ccc1C(C)(C)CC(O)(Cc1cc2ccncc2[nH]1)C(F)(F)F` (stereo not shown) [1,1,1-Trifluoro-4-(4-fluoro-2-methoxyphenyl)-4-methyl-2-(1H-pyrrolo[2,3-c]pyridin-2-ylmethyl)pentan-2-ol], in that order: “potent activity” and “potent agonists”.
`Cc1ccc(F)cc1C(C)(C)CC(O)(Cc1cc2c(C)cccc2[nH]1)C(F)(F)F` (stereo not shown) [1,1,1-Trifluoro-4-(5-fluoro-2-methylphenyl)-4-methyl-2-(4-methyl-1H-indol-2-ylmethyl)pentan-2-ol]: the “activity in the GR binding assay” value in assay [1] is listed as “potent activity”. Moreover, the “activity as agonists” value in assay [2] is reported as “potent agonists”.
For `CC(C)(CC(O)(Cc1ccnc2ccccc12)C(F)(F)F)c1ccccc1O` (stereo not shown) [2-(4,4,4-Trifluoro-3-hydroxy-1,1-dimethyl-3-quinolin-4-ylmethylbutyl)phenol], in that order: “potent activity” and “potent agonists”.
`CC(C)(CC(O)(Cc1ccnc2ccccc12)C(F)(F)F)c1ccc(F)cc1O` (stereo not shown) [5-Fluoro-2-(4,4,4-trifluoro-3-hydroxy-1,1-dimethyl-3-quinolin-4-ylmethylbutyl)phenol]: the “activity in the GR binding assay” value in assay [1] is reported as “potent activity”. In addition, the “activity as agonists” value in assay [2] is reported as “potent agonists”.
In the same order, the values of `CC(C)(CC(O)(Cc1ccnc2ccccc12)C(F)(F)F)c1cc(Br)ccc1O` (stereo not shown) [4-Bromo-2-(4,4,4-trifluoro-3-hydroxy-1,1-dimethyl-3-quinolin-4-ylmethylbutyl)phenol] are “potent activity” and “potent agonists”.
Turning to `COc1cc(F)c(Br)cc1C(C)(C)CC(O)(Cc1ccnc2ccccc12)C(F)(F)F` (stereo not shown) [4-(5-Bromo-4-fluoro-2-methoxyphenyl)-1,1,1-trifluoro-4-methyl-2-quinolin-4-ylmethylpentan-2-ol], the “activity in the GR binding assay” value in assay [1] was “potent activity”. The “activity as agonists” value in assay [2] is “potent agonists”.
For `CC(C)(CC(O)(Cc1cc2ccccc2[nH]1)C(F)(F)F)c1cc(F)cc2c1OCC2` (stereo not shown) [1,1,1-Trifluoro-4-(5-fluoro-2,3-dihydrobenzofuran-7-yl)-2-(1H-indol-2-ylmethyl)-4-methylpentan-2-ol], in that order: “potent activity” and “potent agonists”.
As for `COc1ccc(F)cc1C(C)(C)CC(O)(Cc1cc2ccncc2[nH]1)C1CC1` (stereo not shown) [2-Cyclopropyl-4-(5-fluoro-2-methoxyphenyl)-4-methyl-1-(1H-pyrrolo[2,3-c]pyridin-2-yl)pentan-2-ol], in assay [1], the “activity in the GR binding assay” value is listed as “potent activity”. For the same molecule, the “activity as agonists” value in assay [2] is “agonists”.
In the same order, the values of `COc1ccc(Br)cc1C(C)(C)CC(O)(Cc1cc2ccccc2[nH]1)C(F)(F)F` (stereo not shown) [4-(5-Bromo-2-methoxyphenyl)-1,1,1-trifluoro-2-(1H-indol-2-ylmethyl)-4-methylpentan-2-ol] are “potent activity” and “potent agonists”.
Consider `CC(C)(CC(O)(Cc1cc2ccccc2[nH]1)C(F)(F)F)c1cc(Br)cc2c1OCC2` (stereo not shown) [4-(5-Bromo-2,3-dihydrobenzofuran-7-yl)-1,1,1-trifluoro-2-(1H-indol-2-ylmethyl)-4-methylpentan-2-ol], for which the “activity in the GR binding assay” value in assay [1] is “potent activity”. Further, the “activity as agonists” value in assay [2] is “potent agonists”.
As for `Cc1cc(C#N)cc2[nH]c(CC(O)(CC(C)(C)c3ccc(F)cc3)C(F)(F)F)cc12` (stereo not shown) [2-[4-(4-Fluorophenyl)-2-hydroxy-4-methyl-2-trifluoromethylpentyl]-4-methyl-1H-indole-6-carbonitrile], the “activity in the GR binding assay” value in assay [1] is “potent activity”. In assay [2], the “activity as agonists” value was “potent agonists”.
In the same order, the values of `Cc1cc2c(c(C(C)(C)CC(O)(Cc3cc4ccccc4[nH]3)C(F)(F)F)c1)OCC2` (stereo not shown) [1,1,1-Trifluoro-2-(1H-indol-2-ylmethyl)-4-methyl-4-(5-methyl-2,3-dihydrobenzofuran-7-yl)pentan-2-ol] are “potent activity” and “potent agonists”.
For `COc1cc(F)ccc1C(C)(C)CC(O)(Cc1cc2cnccc2[nH]1)C(F)(F)F` (stereo not shown) [1,1,1-Trifluoro-4-(4-fluoro-2-methoxyphenyl)-4-methyl-2-(1H-pyrrolo[3,2-c]pyridin-2-ylmethyl)pentan-2-ol], in that order: “potent activity” and “potent agonists”.
In the same order, the values of `CC(C)(CC(O)(Cc1cc2ccncc2[nH]1)C(F)(F)F)c1cccc2c1OCC2` (stereo not shown) [4-(2,3-Dihydrobenzofuran-7-yl)-1,1,1-trifluoro-4-methyl-2-(1H-pyrrolo[2,3-c]pyridin-2-ylmethyl)pentan-2-ol] are “potent activity” and “potent agonists”.
As to `COc1ccc(F)cc1C(C)(C)CC(O)(Cc1ccnc2ccccc12)C(F)(F)F` (stereo not shown) [1,1,1-Trifluoro-4-(5-fluoro-2-methoxyphenyl)-4-methyl-2-(quinolin-4-ylmethyl)pentan-2-ol], the “activity in the GR binding assay” value in assay [1] is “potent activity”. Further, the “activity as agonists” value in assay [2] is listed as “potent agonists”.
For `Cc1cccc2[nH]c(CC(O)(CC(C)(C)c3ccc(F)cc3)C(F)(F)F)cc12` (stereo not shown) [1,1,1-Trifluoro-4-(4-fluorophenyl)-4-methyl-2-(4-methyl-1H-indol-2-ylmethyl)pentan-2-ol], in that order: “potent activity” and “potent agonists”.
In the same order, the values of `COc1cccc(C(C)(C)CC(O)(Cc2ccnc3ccccc23)C(F)(F)F)c1` (stereo not shown) [1,1,1-Trifluoro-4-(3-methoxyphenyl)-4-methyl-2-quinolin-4-ylmethylpentan-2-ol] are “potent activity” and “potent agonists”.
For `Cc1ccc(F)cc1C(C)(C)CC(O)(Cc1cc2cc(C#N)ccc2[nH]1)C(F)(F)F` (stereo not shown) [2-[4-(5-Fluoro-2-methylphenyl)-2-hydroxy-4-methyl-2-trifluoromethylpentyl]-1H-indole-5-carbonitrile], in that order: “potent activity” and “potent agonists”.
